Measurements: patent publication US20020137929A1, “1 - (3-heterocyclylphenyl) isothiourea, -isourea, -guanidine and -amidine herbicidal agents” (Intellectual Property Department, BASF Aktiengesellschaft, priority 1998, published 2002)

How the values were obtained:
[1] = system: GLXMAW (Soybean, Williams); test: Postemergence herbicidal evaluation; format: in vivo, Glycine max, (L.) Merr. cv Williams; conditions: postemergence
Method in brief: (§1)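 Two-week-old seedlings sprayed with compound in 50/50 acetone/water plus 0.5% TWEEN 20, at about 0.0156 to 0.500 kg/ha, nozzle at 40 psi. Kept in greenhouse; rated visually 4-5 weeks after treatment on a 0-9 scale versus control, repeat tests averaged.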

[2] = system: TRZAWR (Wheat, Winter, cv Riband); test: Postemergence herbicidal evaluation; format: in vivo, Triticum aestivum; conditions: postemergence
Method in brief: as §1

[3] = system: ORYSAT (Rice, Tebonnet); test: Preemergence herbicidal evaluation; format: in vivo, Oryza sativa, (L.) Tebonnet; conditions: rated 4-5 weeks after treatment
Method in brief: (§2)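 Rating at 4–5 wk post-spray on a 0–9 visual scale vs control. Application: aqueous acetone, ~0.0156–0.500 kg/ha, to soil surface after seeding, preemergence.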

[4] = system: MOOVA (Monochoria); test: Preemergence weed control under flooded paddy conditions; format: in vivo, Monochoria vaginalis; conditions: rated 3-4 weeks after treatment
Method in brief: (§3)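 Greenhouse paddy assay. Acetone/water (50/50 v/v) solutions dosed into flood water, equivalent to about 0.0313 to 0.500 kg/ha active ingredient, over seeds planted 0.5 cm deep in silt loam. Score: 0-9 visual, based on stand, vigor, malformation, size and chlorosis, 3 to 4 weeks after treatment.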

[5] = system: GALAP (Galium); test: Preemergence herbicidal evaluation; format: in vivo, Galium aparine; conditions: rated 4-5 weeks after treatment
Method in brief: as §2

[6] = system: SAGPY (Arrowhead (Pygmaea)); test: Preemergence weed control under flooded paddy conditions; format: in vivo, Sagittaria pygmaea; conditions: rated 3-4 weeks after treatment
Method in brief: as §3

[7] = system: CASOB (Sicklepod); test: Postemergence herbicidal evaluation; format: in vivo, Cassia obtusifolia; conditions: postemergence
Method in brief: as §1

[8] = system: GALAP (Galium); test: Postemergence herbicidal evaluation; format: in vivo, Galium aparine; conditions: postemergence
Method in brief: as §1

[9] = system: AMBEL (Ragweed, Common); test: Postemergence herbicidal evaluation; format: in vivo, Ambrosia artemisifolia; conditions: postemergence
Method in brief: as §1

[10] = system: CYPSE (Flatsedge); test: Preemergence weed control under flooded paddy conditions; format: in vivo, Cyperus serotinus; conditions: rated 3-4 weeks after treatment
Method in brief: as §3

[11] = system: SETVI (Foxtail, Green); test: Preemergence herbicidal evaluation; format: in vivo, Setaria viridis; conditions: rated 4-5 weeks after treatment
Method in brief: as §2

[12] = system: ECHORC (Watergrass (Calif.)); test: Preemergence weed control under flooded paddy conditions; format: in vivo, Echinochloa oryzoides; conditions: rated 3-4 weeks after treatment
Method in brief: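 Seeds or propagules sown in top 0.5 cm of silt loam soil, flooded 1.5 to 3 cm above surface throughout. Compound in 50/50 v/v aqueous/acetone pipetted into flood water at about 0.0313 to 0.500 kg/ha. Visual 0-9 rating versus control after three to four weeks in greenhouse.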

Compound: CCOC(=O)CN1C(=O)C(Cl)SC1=Nc1cc(-n2c(=O)cc(C(F)(F)F)n(C)c2=O)c(F)cc1Cl (stereo not drawn) [Compound 126, Ethyl 5-chloro-2-{{2-chloro-5-[3,6-dihydro-3-methyl-2,6-dioxo-4-(trifluoromethyl)-1(2H)-pyrimidinyl]-4-fluorophenyl}imino}-4-oxo-3-thiazolidineacetate]
- herbicidal rating GLXMAW ([1]; rate 0.0156 kg/ha): 5.0
- herbicidal rating GLXMAW ([1]; rate 0.0313 kg/ha): 5.5
- herbicidal rating GLXMAW ([1]; rate 0.0625 kg/ha): 6.0
- herbicidal rating GLXMAW ([1]; rate 0.1250 kg/ha): 7.0
- herbicidal rating TRZAWR ([2]; rate 0.0156 kg/ha): 2.0
- herbicidal rating TRZAWR ([2]; rate 0.0313 kg/ha): 2.5
- herbicidal rating TRZAWR ([2]; rate 0.0625 kg/ha): 3.0
- herbicidal rating TRZAWR ([2]; rate 0.1250 kg/ha): 3.5
- Preemergence herbicidal rating ORYSAT ([3]; rate 0.0625 kg/ha): 0.0
- Preemergence herbicidal rating ORYSAT ([3]; rate 0.1250 kg/ha): 0.0
- Preemergence herbicidal rating ORYSAT ([3]; rate 0.2500 kg/ha): 0.0
- Preemergence herbicidal rating ORYSAT ([3]; rate 0.5000 kg/ha): 3.0
- herbicidal effect rating, MOOVA ([4]; 0.0313 kg/ha): 3.0
- herbicidal effect rating, MOOVA ([4]; 0.0625 kg/ha): 4.0
- herbicidal effect rating, MOOVA ([4]; 0.1250 kg/ha): 6.0
- herbicidal effect rating, MOOVA ([4]; 0.2500 kg/ha): 7.0
- Preemergence herbicidal rating GALAP ([5]; rate 0.0625 kg/ha): 0.0
- Preemergence herbicidal rating GALAP ([5]; rate 0.1250 kg/ha): 0.0
- Preemergence herbicidal rating GALAP ([5]; rate 0.2500 kg/ha): 9.0
- Preemergence herbicidal rating GALAP ([5]; rate 0.5000 kg/ha): 9.0
- herbicidal effect rating, SAGPY ([6]; 0.0313 kg/ha): 0.0
- herbicidal effect rating, SAGPY ([6]; 0.0625 kg/ha): 0.0
- herbicidal effect rating, SAGPY ([6]; 0.1250 kg/ha): 3.0
- herbicidal effect rating, SAGPY ([6]; 0.2500 kg/ha): 3.0
- herbicidal rating CASOB ([7]; rate 0.0156 kg/ha): 0.0
- herbicidal rating CASOB ([7]; rate 0.0313 kg/ha): 0.0
- herbicidal rating CASOB ([7]; rate 0.0625 kg/ha): 2.0
- herbicidal rating CASOB ([7]; rate 0.1250 kg/ha): 4.0
- herbicidal rating GALAP ([8]; rate 0.0156 kg/ha): 0.0
- herbicidal rating GALAP ([8]; rate 0.0313 kg/ha): 0.0
- herbicidal rating GALAP ([8]; rate 0.0625 kg/ha): 0.0
- herbicidal rating GALAP ([8]; rate 0.1250 kg/ha): 3.0
- herbicidal rating AMBEL ([9]; rate 0.0156 kg/ha): 5.0
- herbicidal rating AMBEL ([9]; rate 0.0313 kg/ha): 9.0
- herbicidal rating AMBEL ([9]; rate 0.0625 kg/ha): 9.0
- herbicidal rating AMBEL ([9]; rate 0.1250 kg/ha): 9.0
- herbicidal effect rating, CYPSE ([10]; 0.0313 kg/ha): 0.0
- herbicidal effect rating, CYPSE ([10]; 0.0625 kg/ha): 0.0
- herbicidal effect rating, CYPSE ([10]; 0.1250 kg/ha): 0.0
- herbicidal effect rating, CYPSE ([10]; 0.2500 kg/ha): 0.0
- Preemergence herbicidal rating SETVI ([11]; rate 0.0625 kg/ha): 0.0
- Preemergence herbicidal rating SETVI ([11]; rate 0.1250 kg/ha): 0.0
- Preemergence herbicidal rating SETVI ([11]; rate 0.2500 kg/ha): 3.0
- Preemergence herbicidal rating SETVI ([11]; rate 0.5000 kg/ha): 9.0
- herbicidal effect rating, ECHORC ([12]; 0.0313 kg/ha): 0.0
- herbicidal effect rating, ECHORC ([12]; 0.0625 kg/ha): 3.0
- herbicidal effect rating, ECHORC ([12]; 0.1250 kg/ha): 6.0
- herbicidal effect rating, ECHORC ([12]; 0.2500 kg/ha): 7.0
